SMILES strings stand for the structures.

What all share (format): in vivo
The subject of series [1] is cat fleas. Nature of the series: whole plant or invertebrate. The following applies: 1 ppm in bovine serum sucked through Parafilm at 37° C., dead fleas after 48 hours, 20 fleas per group, corrected by control group. The protocol: (§1) A test container wherein the living space of fleas was isolated from bovine serum by use of Parafilm™ (obtainable from Aldrich Chemical Co. Ltd.), which is usually used as an artificial skin, was prepared. A compound to be tested was added to the bovine serum in an amount sufficient for its concentration to be 1 ppm, and the fleas were allowed to suck the serum sample through the Parafilm™ at 37° C. Each group consisted of 20 fleas. […] By counting the dead fleas in a control group without a test compound, the mortality was corrected.

For series [2], the system named is cat fleas. Nature of the series: Test on insecticidal effect against cat fleas (Test Example 12, serum feeding through Parafilm). The following applies: 1 ppm in bovine serum, 37° C., after 48 hours, corrected by control group. The protocol:
as §1

For series [3], the system named is two-spotted spider mites. Nature of the series: Test on miticidal effect against two-spotted spider mites, cowpea leaf dip (Test Example 9). The following applies: for The death rate of mites (%): cowpea leaf dip, 2 days after treatment; for Death rate of hatchlings (%) / Death rate of mite eggs (%): 7 days after treatment; for Death rate of mite eggs (%): unhatched eggs; for The egg of two-spotted spider mite (7 days after) dead: number of dead eggs of total 20. As to the method: The remainder of the test compound solution was removed and the treated leaf was allowed to stand in a Petri dish containing a sponge covered with a filter paper soaked in water. After the test compound solution on the leaf had dried, eggs of the mites were marked. The leaf was then allowed to stand at 25° C. on the Petri dish without a lid. Two days after treatment with the test compound, the death rate of mites (expressed as a percentage of the total number of mites) was determined. Seven to ten days after the treatment, the “death rate” of the mite eggs (expressed as the percentage of the total number of mite eggs which were unhatched) and the death rate of the hatchlings (expressed as the percentage of the total number of hatchlings which were killed) was estimated. The test was repeated at different concentrations of the test compound. “Untreated” in this test means the control test in which water was used instead of the test compound solution.

Regarding `CCC1OC2(CCC1C)CC1CC(CC=C(C)C(OC(=O)C3(c4ccc(NC(C)=O)cc4)CCCC3)C(C)C=CC=C3COC4C(O)C(C)=CC(C(=O)O1)C34O)O2` (stereo not drawn) [Example 2, 13-[1-(4-Acetylaminophenyl)cyclopentanecarbonyloxy]-5-hydroxymilbemycin A4], the “Mortality (%)” value in series [1] came out at 95.0%.
Turning to `CCC1OC2(CCC1C)CC1CC(CC=C(C)C(OC(=O)C3(c4ccc(NC(=O)C(F)(F)F)cc4)CCC3)C(C)C=CC=C3COC4C(O)C(C)=CC(C(=O)O1)C34O)O2` (stereo not drawn) [Example 18, 13-[1-(4-Trifluoroacetylaminophenyl)cyclobutanecarbonyloxy]-5-hydroxy-milbemycin A4], in series [2], the “Mortality (%)” value came to 91.5%.
`CCC1OC2(CCC1C)CC1CC(CC=C(C)C(OC(=O)C3(c4ccc(NC(=O)CN(C)C(C)=O)cc4)CCCC3)C(C)C=CC=C3COC4C(O)C(C)=CC(C(=O)O1)C34O)O2` (stereo not drawn) [Example 6, 13-{1-[4-(N-Acetyl-N-methylglycylamino)phenyl]cyclopentanecarbonyloxy}-5-hydroxymilbemycin A4]: the “Mortality (%)” value in series [1] is reported as 79.5%.
The same measure, in the same setting: in the case of `COCC(=O)Nc1ccc(C2(C(=O)OC3C(C)=CCC4CC(CC5(CCC(C)C(C)O5)O4)OC(=O)C4C=C(C)C(O)C5OCC(=CC=CC3C)C45O)CCCC2)cc1` (stereo not drawn) [Example 8, 13-[1-(4-Methoxyacetylaminophenyl)cyclopentanecarbonyloxy]-5-hydroxy-milbemycin A3] it was 87.6%; in that of `CCC1OC2(CCC1C)CC1CC(CC=C(C)C(OC(=O)C3(c4ccc(NC(=O)CO)cc4)CCCC3)C(C)C=CC=C3COC4C(O)C(C)=CC(C(=O)O1)C34O)O2` (stereo not drawn) [Example 5, 13-[1-(4-Hydroxyacetylaminophenyl)cyclopentanecarbonyloxy]-5-hydroxy-milbemycin A4], 74.4%; in that of `CC1=CC2C(=O)OC3CC(CC=C(C)C(OC(=O)C4(c5ccc(NS(C)(=O)=O)cc5)CCCC4)C(C)C=CC=C4COC(C1O)C42O)OC1(CCC(C)C(C)O1)C3` (stereo not drawn) [Example 9, 13-[1-(4-Methanesulfonylaminophenyl)cyclopentanecarbonyloxy]-5-hydroxy-milbemycin A3], 83.2%.
Take `CCC1OC2(CCC1C)CC1CC(CC=C(C)C(OC(=O)C3(c4ccc(NS(C)(=O)=O)cc4)CCC3)C(C)C=CC=C3COC4C(O)C(C)=CC(C(=O)O1)C34O)O2` (stereo not drawn) [Example 17, 13-[1-(4-Methanesulfonylaminophenyl)cyclobutanecarbonyloxy]-5-hydroxy-milbemycin A4]: the “Mortality (%)” value in series [2] was found to be 94.9%.
Turning to `CCC1OC2(CCC1C)CC1CC(CC=C(C)C(OC(=O)C3(c4ccc(NC(=O)CC#N)cc4)CCCC3)C(C)C=CC=C3COC4C(O)C(C)=CC(C(=O)O1)C34O)O2` (stereo not drawn) [Example 3, 13-[1-(4-Cyanoacetylaminophenyl)cyclopentanecarbonyloxy]-5-hydroxymilbemycin A4], the “Mortality (%)” value in series [1] came out at 81.4%.
By mortality is commonly meant the percentage killed. A high value points to fewer survivors. With `CC[C@H]1O[C@]2(CC[C@@H]1C)C[C@@H]1C[C@@H](C/C=C(\C)[C@H](OC(=O)C3(c4ccccc4)CCCC3)[C@@H](C)/C=C/C=C3\CO[C@@H]4[C@H](O)C(C)=C[C@@H](C(=O)O1)[C@]34O)O2` [Comparative Compound A, reference compound], the mortality at 1 ppm in series [1] (Ctenocephalides felis) and in series [2] (Ctenocephalides felis) was 2.4% in each case.
Take `CCC1OC2(CCC1C)CC1CC(CC=C(C)C(OC(=O)C3(c4ccc(NC(C)=O)cc4)CCC3)C(C)C=CC=C3COC4C(O)C(C)=CC(C(=O)O1)C34O)O2` (stereo not drawn) [Example 16, 13-[1-(4-Acetylaminophenyl)cyclobutanecarbonyloxy]-5-hydroxymilbemycin A4]: the “Mortality (%)” value in series [2] amounted to 92.9%.
In the case of `CCC1OC2(CCC1C)CC1CC(CC=C(C)C(OC(=O)C3(c4ccc(N)cc4)CCCC3)C(C)C=CC=C3COC4C(O)C(C)=CC(C(=O)O1)C34O)O2` (stereo not drawn) [Example 1(b), 13-[1-(4-Aminophenyl)cyclopentanecarbonyloxy]-5-hydroxymilbemycin A4], the “Mortality (%)” value in series [1] turned out to be 95.0%.
For `C#CCCC(=O)Nc1ccc(C2(C(=O)OC3C(C)=CCC4CC(CC5(CCC(C)C(CC)O5)O4)OC(=O)C4C=C(C)C(O)C5OCC(=CC=CC3C)C45O)CCC2)cc1` (stereo not drawn) [Example 19, 13-[1-(4-Pentynoylaminophenyl)cyclobutanecarbonyloxy]-5-hydroxymilbemycin A4], the “Mortality (%)” value in series [2] was 90.7%.
Consider `CCC1OC2(CCC1C)CC1CC(CC=C(C)C(OC(=O)C3(c4ccc(NC(=O)COC)cc4)CCC3)C(C)C=CC=C3COC4C(O)C(C)=CC(C(=O)O1)C34O)O2` (stereo not drawn) [Example 15, 13-[1-(4-Methoxyacetylaminophenyl)cyclobutanecarbonyloxy]-5-hydroxy-milbemycin A4], for which, in series [2], the “Mortality (%)” value is reported as 100%.
Turning to `CCC1OC2(CCC1C)CC1CC(CC=C(C)C(OC(=O)C3(c4ccc(NS(C)(=O)=O)cc4)CCCC3)C(C)C=CC=C3COC4C(O)C(C)=CC(C(=O)O1)C34O)O2` (stereo not drawn) [Example 4, 13-[1-(4-Methanesulfonylaminophenyl)cyclopentanecarbonyloxy]-5-hydroxy-milbemycin A4], in series [1], the “Mortality (%)” value was determined as 100.0%.
As to `CC[C@H]1O[C@]2(CC[C@@H]1C)C[C@@H]1C[C@@H](C/C=C(\C)[C@H](OC(=O)C3(c4ccc(NC(=O)COC)cc4)CCCC3)[C@@H](C)/C=C/C=C3\CO[C@@H]4[C@H](O)C(C)=C[C@@H](C(=O)O1)[C@]34O)O2` [Test Compound Solution], the “The death rate of mites (%)” value in series [3] (0.1 ppm) worked out at 98.5%; in series [3] (1 ppm), 100%; in series [3] (10 ppm), 100%; in series [3] (100 ppm), 100%. In addition, the “two-spotted spider mite (2 days after) dead” value in series [3] (0.1 ppm, number of dead mites of total 65) came to 64; in series [3] (1 ppm, number of dead mites of total 55) it was 55; in series [3] (10 ppm, number of dead mites of total 39) it was 39; in series [3] (100 ppm, number of dead mites of total 48), 48. For the same compound, the “two-spotted spider mite (2 days after) agony” value in series [3] (0.1 ppm, number of mites in agony of total 65) is recorded as 1. The results for the “Death rate of hatchlings (%)” value in series [3] (1 ppm), in series [3] (10 ppm) and in series [3] (100 ppm) were 30%, 100% and 100%, respectively. Besides, the “Death rate of mite eggs (%)” value in series [3] (1 ppm) is given as 0%; in series [3] (10 ppm) it was 25%; in series [3] (100 ppm) it was 90%. Moreover, the “The egg of two-spotted spider mite (7 days after) dead” value in series [3] (1 ppm) is given as 0; in series [3] (10 ppm), 5; in series [3] (100 ppm) it was 18.

The values are drawn from patent publication US6653342B2, “13-substituted milbemycin derivatives, their preparation and their use against insects and other pests” (Sankyo Company, Limited, priority 2000, dated 2003).
